In patent US12344879B2, “Transgenic bacteria with expanded amino acid usage and nucleic acid molecules for use in the same” (BOARD OF REGENTS, THE UNIVERSITY OF TEXAS SYSTEM, priority 2015, dated 2025):
Where “and” joins values, the source holds several entries; their conditions need not be identical. Identical values can stand only once.

System: NMC-A β-lactamase reporter (C69X)
Test: NMC-A β-lactamase reporter assay (ampicillin resistance by amber suppression with selenocysteine)
Assay type: cell-based, E. coli DHΔabc
Conditions: DHΔabc; for ampicillin concentration supporting growth (β-lactamase activity): NMC-A C69X reporter, co-expressed with SelA
Source text: A method of genetic selection capable of discriminating different levels of selenocysteine incorporation was developed. To specifically ‘addict’ a reporter protein to selenocysteine rather than serine, the NMC-A β-lactamase from Enterobacter cloacae was used. […] Then cysteine 69 was replaced with an amber stop codon (X69; FIG. 1a) for library selection, hypothesizing that the incorporation of selenocysteine and the formation of a selenyl-sulfhydryl bond would restore activity. (Swardn et al., 1998)
To eliminate any crosstalk between the tRNA^Sec library and the endogenous selenocysteine incorporation machinery, the selA, selB and selC genes (encoding SelA, SelB and tRNA^Sec respectively) were deleted from E. coli DH10B (designated DHΔabc). Cells containing the reporter plasmid pNMC-A C69X and the accessory plasmid pRSF-eSelA (expressing SelA) were transformed with plasmid pMB1-ZU containing the tRNA^Sec antideterminant library. Transformants were plated on media containing a gradient of ampicillin concentrations for selection of mutants capable of selenocysteine-specific suppression. The single colonies that arose covered a range of ampicillin concentrations. […] Of these tRNA^Sec variants, only G7-C66:U49-G65:C50-U64 was detected at the two highest ampicillin concentration (200 and 250 μg·ml^−1).
The tRNA^Sec antideterminant library was generated by enzymatic inverse PCR using oligonucleotide primers (Table 2) to randomize the six positions identified as the main antideterminant for EF-Tu binding. Following self ligation for 16 hours, DNA was ethanol precipitated with GlycoBlue (Ambion) and transformed by electroporation into E. coli DHΔabc containing the plasmids pNMC-A C69X and pRSF-eSelA. Transformants were diluted in 200 ml LB medium containing 12.5 μg·mL^−1 Zeocin, 6.25 μg·mL^−1 tetracycline and 25 μg·mL^−1 kanamycin and incubated overnight. Following overnight growth, cells were diluted 1/50 in LB medium containing 6.25 μg·mL^−1 Zeocin, 3.75 μg·mL^−1 tetracycline, 12.5 μg·mL^−1 kanamycin, 1 μM Na2SeO3 and 20 μg·mL^−1 L-cysteine and incubated for one hour. A series of 250 μl aliquots of cells were plated on LB agar containing 6.25 μg·mL^−1 Zeocin, 3.75 μg·mL^−1 tetracycline, 12.5 […], 1 μM Na2SeO3 and 20 μg·mL^−1 L-cysteine and 50-300 μg·mL^−1 ampicillin in 50 μg·mL^−1 increments. After 20 hours at 37° C. individual colonies were observed on plates containing 50-200 μg·mL^−1 ampicillin. Plasmid DNA was isolated from a selection of colonies from all plates and tRNA^Sec mutations determined by Sanger sequencing.
NotI/NcoI fragments containing tRNA^SecUx were subcloned into pRSF-eSelA to generate pRSF-UX-eSelA. pRSF-U-eSelA variants described in Table 1 were transformed into E. coli DHΔabc containing the reporter plasmid pNMC-A C69TAG. DHΔabc cells containing pNMC-A and pRSFDuet-1 were used as a positive control. DHΔabc cells harboring pNMC-A C69S and pRSF-UX-eSelA, and pNMC-A C69TAG and pRSF-UX-ΔSelA were used as controls for selenocysteine dependent β-lactamase activity. Transformants were cultured overnight in LB medium containing 6.25 μg·mL^−1 tetracycline, 25 μg·mL^−1 kanamycin, 1 μM Na2SeO3 and 20 […]. Following overnight growth, cells were diluted 1/10 in LB medium containing antibiotics, selenite and L-cysteine and incubated for three hours. […]

Substance	ampicillin concentration supporting growth (β-lactamase activity)	ampicillin concentration at which the tRNA variant was detected in library selection (antideterminant library, pNMC-A C69X, pRSF-eSelA)
tRNA^SecUx: Evolved E. coli tRNA^Sec variant with the G7-C66:U49-G65:C50-U64 antideterminant sequence and CUA anticodon	up to 400 μg·ml^−1	200 µg/mL and 250 µg/mL
tRNA^UTu (GGAAGATGTGGCCGAGCGGTTGAAGGCACCGGT; expressed or natural sequence)	75 µg/mL	
